In ChEMBL document CHEMBL1144776, “Anti-inflammatory constituents of the red alga Gracilaria verrucosa and their synthetic analogues” (J Nat Prod, 2008):
Calls of active or inactive are those of the source. No cut-off for these calls is given here.

How the values were obtained:
Type in all cases: functional, cell-based
RAW264.7 [1] = assay: Antiinflammatory activity in mouse RAW264.7 cells assessed as inhibition of LPS-stimulated nitric oxide production after 24 hrs by […]; details: RAW264.7, 24 h
RAW264.7 [2] = assay: Suppression of iNOS mRNA expression in mouse RAW264.7 cells
RAW264.7 [3] = assay: Antiinflammatory activity in mouse RAW264.7 cells assessed as inhibition of LPS-stimulated NO production at 5 to 20 ug/mL after 24 hrs by […]

Row | IC50 (RAW264.7 [1]) [µM] | SMILES | Activity (RAW264.7 [2]) | Activity (RAW264.7 [3])
1 | < 33.8 | CCCCCCCCC(=O)/C=C/CCCCCCC(=O)O | Active | 
2 | < 33.8 | CCCCCCC/C=C/C(=O)CCCCCCCC(=O)O | Active | 
3 |  | CCCCCCC/C=C(\C(=O)CCCCCCCC(=O)O)c1ccccc1 |  | inactive
4 |  | CCCCCCCC(=O)/C(=C\CCCCCCCC(=O)OC)c1ccccc1 |  | inactive
5 |  | CCCCCCC/C=C(\C(=O)CCCCCCCC(=O)OC)c1ccccc1 |  | inactive
6 |  | CCCCCCCC/C=C(\C(=O)CCCCCCC(=O)O)c1ccccc1 |  | inactive
